From US12616750B2, “Combination therapy utilizing DNA alkylating agents and ATR inhibitors” (Merck Patent GmbH, priority 2018, dated 2026)
Like-named read-outs stand apart in the source and are kept apart here.

How the values were obtained:
[1] = test system: HCC-1954 cells; assay: Dose-matrix combination assay (synergy score, Loewe model); type: cell-based
Experimental: (§1) Dose-matrix combination assays were performed as described above, but performed in opague 384-well plates (2k viable cells/well). Compounds were added using Tecan D300e liquid. Protein solutions were supplemented with 0.3% Tween-20 (final) and diluted to 1 μM. All wells were normalized to the maximum amount of DMSO (maximum 0.4%) or Tween-20 added. […] Luminescence values were normalized to luminescence of non-treated cells and dose-response was fitted using Smart Fit. Synergy scores were calculated using LOEWE synergy model.
(§2) The screening of synergistic drug combinations can be accomplished by performing a dose-matrix assay. Therefore, two drugs are serial diluted and mixed at every dose level, yielding a dose-matrix. The drug combination can be additive if the effects of the combination are identical to the added effects of the single agents. However, the effects of the combination might also be stronger than the activity of the single agents. This scenario is termed synergy, whereas weaker combination effects compared to the single agents are termed antagonism. A dose-matrix assay is depicted schematically in FIG. 2 which illustrates the outcomes of a dose-matrix assay: additivity, antagonism and synergy.
(§3) The screening was conducted by serial diluting the duocarmycin derivative DUBA (10) and the DDR inhibitors. […] DUBA was combined in a dose-matrix assay with hycanthone. The cell viability was measured after 6 d of treatment using the CellTiter-Glo assay kit. The signals of the cell viability assay were normalized to untreated cells and fitted. […] By subtracting the modeled data from the fitted data, an excess matrix was generated. The excess matrix can be considered as a visualization of the differences between model and actual data which also highlights spots of either high synergy or antagonism. The quantification of the combination effects, however, was performed by calculating synergy scores. […] Besides synergy score, the potency of the drugs in monotherapy was obtained from these experiments. […] The potency was obtained from this dose-response curve.
(§4) The scattering of S was determined in a sham control experiment to define a cutoff for classifying a combination as truly synergistic or antagonistic. Thus seven different compounds were combined with itself on four different cell lines and the three-σ confidence interval was calculated around the mean of the measurement. […] For the sake of convenience, the cutoff was set to a value of ±1.
(§5) Synergy scores (S) were obtained from the combination experiments that indicated additivity […] if model and actual response were equal. […] The magnitude of the score determined the extent of the combination effects.

[2] = test system: MDA-MB-468 cells; assay: as above; type: cell-based; conditions: combination with DUBA; MDA-MB-468, 6 d; S ± SD; cutoff ±1
Experimental: as §1, §2, §3, §4, §5

[3] = target: T1, NEK1 (Homo sapiens, UniProt Q96PY6); conditions: cited from earlier work
T1 sequence (Q96PY6 1-1258): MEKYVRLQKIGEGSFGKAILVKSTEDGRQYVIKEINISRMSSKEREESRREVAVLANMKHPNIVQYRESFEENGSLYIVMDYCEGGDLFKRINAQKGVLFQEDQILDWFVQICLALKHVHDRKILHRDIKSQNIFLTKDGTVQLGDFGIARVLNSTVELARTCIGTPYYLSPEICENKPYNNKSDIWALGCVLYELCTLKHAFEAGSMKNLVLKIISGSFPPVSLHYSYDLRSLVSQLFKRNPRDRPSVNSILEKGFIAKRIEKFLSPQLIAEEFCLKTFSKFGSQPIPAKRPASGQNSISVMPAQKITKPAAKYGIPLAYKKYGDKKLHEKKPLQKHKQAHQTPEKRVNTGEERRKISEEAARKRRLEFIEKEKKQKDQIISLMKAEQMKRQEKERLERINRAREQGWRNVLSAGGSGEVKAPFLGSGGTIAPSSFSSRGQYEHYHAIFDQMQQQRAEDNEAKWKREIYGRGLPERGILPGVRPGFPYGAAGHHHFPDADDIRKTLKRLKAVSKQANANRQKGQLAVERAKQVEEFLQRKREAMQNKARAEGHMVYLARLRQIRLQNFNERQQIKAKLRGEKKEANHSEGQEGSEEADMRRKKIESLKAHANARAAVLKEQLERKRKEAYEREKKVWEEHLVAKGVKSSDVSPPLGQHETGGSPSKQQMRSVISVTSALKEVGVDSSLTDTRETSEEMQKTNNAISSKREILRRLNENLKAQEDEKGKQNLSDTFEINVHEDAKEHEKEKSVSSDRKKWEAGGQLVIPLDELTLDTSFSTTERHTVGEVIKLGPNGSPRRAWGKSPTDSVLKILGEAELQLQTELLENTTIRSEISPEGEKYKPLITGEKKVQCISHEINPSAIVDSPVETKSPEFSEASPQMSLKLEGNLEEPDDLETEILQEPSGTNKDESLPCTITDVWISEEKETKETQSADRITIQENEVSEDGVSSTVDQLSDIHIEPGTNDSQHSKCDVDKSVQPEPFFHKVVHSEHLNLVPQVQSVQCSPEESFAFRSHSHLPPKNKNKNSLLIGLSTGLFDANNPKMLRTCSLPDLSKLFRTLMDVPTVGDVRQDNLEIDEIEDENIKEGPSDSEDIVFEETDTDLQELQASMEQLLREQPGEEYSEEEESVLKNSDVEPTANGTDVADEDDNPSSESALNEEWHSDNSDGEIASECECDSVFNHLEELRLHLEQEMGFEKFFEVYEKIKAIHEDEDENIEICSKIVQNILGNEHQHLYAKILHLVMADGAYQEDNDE

[4] = test system: HCC-1954 cells; assay: Cytotoxicity (cell viability, CellTiter-Glo, 6 d); type: cell-based; conditions: Homo sapiens, HCC1954, HCC-1954
Experimental: as §1
After 6 d of treatment, CellTiter-Glo luminescent assay was performed and the luminescence was read on Envision Reader. The results were analyzed using GeneData Screener as described before.

[5] = test system: BT-474 cells; assay: MNED curve-shift assay; type: cell-based
From the text: (§6) Therefore a curve-shift assay system was established. In a first step, a dose-response curve (DRC) is obtained by treating a certain cell line with an inhibitor. The maximum non-efficacious dose (MNED) can be derived from this DRC. MNED is the highest dose, that can be added to a certain cell line without affecting the viability. The activity of the ADC is confirmed in a separate experiment. Finally, a combination experiment can be conducted. Therefore, the ADC and ADC plus inhibitor at MNED are added to the cells. The inhibitor is tested in parallel at MNED as a control. Due to the application of inhibitor at MNED, no reduction in cell viability caused by the inhibitor is expected. Three outcomes are possible: 1) The combination of ADC plus inhibitor is equipotent as the ADC only. […] Such a result would be interpreted as depotentiation. […] In this case, the potency of the ADC is potentiated.
(§7) Potentiation effects are expressed as dose-reduction indices (DRI), which can be calculated by dividing the IC50-value of ADC by the IC50-value of ADC plus inhibitor according to eq. 1
(§8) Curve-shift assays were conducted as follows: The cell number and viability was determined using ViCell™-XR (Beckman Coulter) and seeded in opague 96-well plate (10k viable cells/well). After seeding, the plate was incubated (37° C., 5% C02) in a humid chamber overnight. Compounds were diluted in the appropriate medium, added to the cells and the plate was incubated (37° C., 5% CO2, 6 d) in a humid chamber. After 30 min equilibration at room temperature, CellTiter-Glo reagent (Promega) was added. After the plate was shaken (3 min, 550 rpm, rt) it was incubated (10 min, rt) and luminescence was read on a synergy 4 plate reader (BioTek). Evaluation was performed using GraphPad Prism version 6.05. Therefor luminescence values were normalized to luminescence values of non-treated cells and dose-response was fitted with 4-point logistic fit.
(§9) The determination of dose-reduction indices (DRI) in a maximum non-efficacious dose (MNED) curve-shift assay is a 3-step process as depicted exemplarily in FIG. 13. The cytotoxicity of the ADC is confirmed in a cell viability assay in an initial step. […] In the second step. the MNED of the ATRi was determined. […] In order to obtain a full […] for the combination, the starting concentration of the ADC was lowered compared to the experiment in step 1.

[6] = test system: Calu-3 cells; assay: MNED curve-shift assay; type: cell-based
From the text: as §6, §7, §8, §9

[7] = test system: HCC-1954 cells; assay: MNED curve-shift assay; type: cell-based; conditions: HCC-1954
From the text: as §6, §7, §8, §9

[8] = test system: JIMT-1 cells; assay: MNED curve-shift assay; type: cell-based
From the text: as §6, §7, §8, §9

[9] = test system: MDA-MB-453 cells; assay: MNED curve-shift assay; type: cell-based
From the text: as §6, §7, §8, §9

[10] = test system: MDA-MB-468 cells; assay: MNED curve-shift assay; type: cell-based
From the text: as §6, §7, §8, §9

[11] = test system: SK-BR-3 cells; assay: MNED curve-shift assay; type: cell-based
From the text: as §6, §7, §8, §9

[12] = test system: SK-OV-3 cells; assay: MNED curve-shift assay; type: cell-based
From the text: as §6, §7, §8, §9

[13] = test system: MDA-MB-468 cells; assay: Cytotoxicity (cell viability, CellTiter-Glo, 6 d); type: cell-based; conditions: Homo sapiens, MDA-MB-468; read-out: IC50
[14] = test system: MCF7 cells; assay: Cytotoxicity (cell viability); type: cell-based; conditions: Homo sapiens; MCF7 (EGFR −, MET −), Table 10
Experimental: as §8
(§10) Dose-matrix combination assays were performed as described above, but performed in opague 384-well plates (2k viable cells/well). Compounds were added using Tecan D300e liquid. Protein solutions were supplemented with 0.3% Tween-20 (final) and diluted to 1 μM. All wells were normalized to the maximum amount of DMSO (maximum 0.4%) or Tween-20 added. Read out of luminescence was performed on Envision 2104 Multilabel Reader (Perkin Elmer) and data were evaluated using Genedata Screener® version 14.0.6-Standard (Genedata AG). Luminescence values were normalized to luminescence of non-treated cells and dose-response was fitted using Smart Fit. Synergy scores were calculated using LOEWE synergy model.

[15] = test system: A549 cells; assay: Dose-matrix combination assay (synergy score, Loewe model); type: cell-based; conditions: combination with AZD6738; A549 (EGFR-positive), 6 d
Experimental: as §10, §2

[16] = combination with DUBA, HCC-1954, 6 d, S ± SD, cutoff ±1

In the case of COc1cc(-c2cnc(N)c(N3CC[C@@H](C(=O)O)[C@@H](C)[C@H]3C)n2)cc(OC)c1OC [Cmpd31], the “Synergy score S” value [1, 16] is given as 0.3±0.1, the “Synergy score S” value [2] is given as 0.4±0.2 and the “potency of NEK1 inhibition” value [3] is given as 170 nM.

In the case of CNCc1ccc(-c2cc(-c3nc(-c4ccc(S(=O)(=O)C(C)C)cc4)cnc3N)on2)cc1 [VE-822], the IC50 ([4]; ATRi alone, mean ± SD, read-out: Cytotoxicity IC50) is reported as 900 ± 400 nM, the “Synergy score S” value ([1]; combination with ADC αHER2-2, HCC-1954) is reported as 5.7±0.3 and the “Synergy score S” value [1, 16] is reported as 5.3±0.6. The “MNED (maximum non-efficacious dose)” value [5] was 1000 nM, the “MNED (maximum non-efficacious dose)” value [6] was 80 nM and the “MNED (maximum non-efficacious dose)” value [7] was 250 nM. For the same molecule, the “MNED (maximum non-efficacious dose)” value [8] was 80 nM, the “MNED (maximum non-efficacious dose)” value [9] was 40 nM and the “MNED (maximum non-efficacious dose)” value [10] was 300 nM. For the same molecule, the “MNED (maximum non-efficacious dose)” value [11] was 125 nM and the “MNED (maximum non-efficacious dose)” value [12] was 125 nM.

COC(=O)c1cc2c3c(cc(O)c2[nH]1)N(C(=O)c1cc2cc(OC)c(OC)c(OC)c2[nH]1)C[C@H]3CCl [compound 13] gave an IC50 ([4]; duocarmycin variant alone, mean ± SD or mean (individual values), read-out: IC50) of 0.3 ± 0.1 nM, an IC50 [13] of 0.14 ± 0.07 nM and an IC50 [14] of 0.06 ± 0.02 nM. For the same molecule, the “Synergy score S” value ([1]; combination with AZD6738, HCC-1954, 6 d) was 4.1 ± 0.4, the “Synergy score S” value ([1]; combination with AZD6738, HCC-1954, 6 d, listed as DSA (13)) was 4.1±0.4 and the “Synergy score S” value [15] was “additive effects”.
